In ChEMBL document CHEMBL1122346, “Antihypertensive activity of 6-arylpyrido[2,3-d]pyrimidin-7-amine derivatives. 2. 7-Acyl amide analogues” (J Med Chem, 1983):

Key:
Assay type in all cases: functional
Rattus norvegicus [1] = test: Antihypertensive activity in conscious spontaneously hypertensive rats 24 hr following 50 mg/kg p.o.; No significant reduction.; conditions: route oral
Rattus norvegicus [2] = test: Antihypertensive activity in conscious spontaneously hypertensive rats 10 hr following 50 mg/kg p.o.; No significant reduction.; conditions: route oral
Rattus norvegicus [3] = test: Antihypertensive activity in conscious spontaneously hypertensive rats 2 hr following 50 mg/kg p.o.; No significant reduction.; conditions: route oral
Rattus norvegicus [4] = test: Antihypertensive activity rating in conscious SHR after 24 h post dose at 10 mg/kg (po); 0=No significant reduction
Rattus norvegicus [5] = organism: Rattus norvegicus; test: Maximum percent decrease in blood pressure in SHR ( hour post dose in parentheses)
Rattus norvegicus [6] = test: Antihypertensive activity rating in conscious SHR after 10 hr post dose at 10 mg/kg (po); Range 10-20%
Rattus norvegicus [7] = test: Antihypertensive activity rating in conscious SHR after 2 hr post dose at 10 mg/kg (po); Range 10-20%
Rattus norvegicus [8] = test: Antihypertensive activity rating in conscious SHR after 2 hr post dose at 50 mg/kg (po); Range 10-20%
Rattus norvegicus [9] = test: Antihypertensive activity in conscious spontaneously hypertensive rats 10 hr following 50 mg/kg p.o.; Range 10-20%.; conditions: route oral
Rattus norvegicus [10] = test: Antihypertensive activity rating in conscious SHR after 10 hr post dose at 10 mg/kg (po); 0=No significant reduction
Rattus norvegicus [11] = test: Antihypertensive activity rating in conscious SHR after 2 hr post dose at 10 mg/kg (po); 0=No significant reduction

SMILES	Activity rating (Rattus norvegicus [1]) [%]	Activity rating (Rattus norvegicus [2]) [%]	Activity rating (Rattus norvegicus [3]) [%]	Activity rating (Rattus norvegicus [4]) [%]	Decrease (Rattus norvegicus [5]) [%]	further results
CC(=O)Nc1nc2nc(C)nc(NC(C)=O)c2cc1-c1c(Cl)cccc1Cl	0	0	0			
CC(=O)Nc1nc2nc(C)nc(C)c2cc1-c1ccccc1C	0	0	0			
CCNC(=O)Nc1nc2nc(C)ncc2cc1-c1c(Cl)cccc1Cl	0	0	0			
CC(=O)Nc1nc2nc(C)ncc2cc1-c1ccccc1C	0	0	0			
CN/C(=N/c1nc2nc(C)ncc2cc1-c1c(Cl)cccc1Cl)SC	0	0	0			
Cc1ncc2cc(-c3c(Cl)cccc3Cl)c(NC(=O)C(Cl)Cl)nc2n1				0	16	Activity rating (Rattus norvegicus [6]): 10%; Activity rating (Rattus norvegicus [7]): 10%
CC(=O)Nc1nc2ncncc2cc1-c1c(Cl)cccc1Cl	0				16	Activity rating (Rattus norvegicus [8]): 10%; Activity rating (Rattus norvegicus [9]): 10%
Cc1ncc2cc(-c3c(Cl)cccc3Cl)c(NC(N)=O)nc2n1	0	0	0		16	
CC(=O)Nc1nc2ncncc2cc1-c1ccccc1C	0	0	0			
Cc1ncc2cc(-c3c(Cl)cccc3Cl)c(NC(=O)CN(C)C)nc2n1				0	18	Activity rating (Rattus norvegicus [6]): 10%; Activity rating (Rattus norvegicus [7]): 10%
COc1ccc(CC(=O)Nc2nc3nc(C)ncc3cc2-c2c(Cl)cccc2Cl)cc1OC				0		Activity rating (Rattus norvegicus [10]): 0%; Activity rating (Rattus norvegicus [11]): 0%
Cc1ncc2cc(-c3c(Cl)cccc3Cl)c(NC(=O)Nc3ccccc3)nc2n1	0	0	0			
Cc1ncc2cc(-c3c(Cl)cccc3Cl)c(NC(=O)Cc3c(Cl)cccc3Cl)nc2n1				0		Activity rating (Rattus norvegicus [10]): 0%; Activity rating (Rattus norvegicus [11]): 0%
Cc1ncc2cc(-c3c(Cl)cccc3Cl)c(NC(=O)C(C)(C)C)nc2n1				0		Activity rating (Rattus norvegicus [10]): 0%; Activity rating (Rattus norvegicus [11]): 0%
Cc1ncc2cc(-c3c(Cl)cccc3Cl)c(NC(=O)C(C)C)nc2n1				0	15	Activity rating (Rattus norvegicus [10]): 0%; Activity rating (Rattus norvegicus [7]): 10%
CC(=O)Nc1nc2nc(C3CC3)ncc2cc1-c1c(Cl)cccc1Cl	0				24	Activity rating (Rattus norvegicus [8]): 10%; Activity rating (Rattus norvegicus [9]): 10%
COc1ccc(C(=O)Nc2nc3nc(C)ncc3cc2-c2c(Cl)cccc2Cl)cc1OC				0	16	Activity rating (Rattus norvegicus [6]): 10%; Activity rating (Rattus norvegicus [7]): 10%
CCSCC(=O)Nc1nc2nc(C)ncc2cc1-c1c(Cl)cccc1Cl				0	19	Activity rating (Rattus norvegicus [10]): 0%; Activity rating (Rattus norvegicus [7]): 10%
Cc1ncc2cc(-c3c(Cl)cccc3Cl)c(NC(=O)C3CC3)nc2n1	0	0	0			
C/N=C(\S)Nc1nc2nc(C)ncc2cc1-c1c(Cl)cccc1Cl	0		0		12	Activity rating (Rattus norvegicus [9]): 10%
C=CCNC(=O)Nc1nc2nc(C)ncc2cc1-c1c(Cl)cccc1Cl	0		0		13	Activity rating (Rattus norvegicus [9]): 10%
Cc1ncc2cc(-c3c(Cl)cccc3Cl)c(NC(=O)OC(C)C)nc2n1				0	15	Activity rating (Rattus norvegicus [6]): 10%; Activity rating (Rattus norvegicus [11]): 0%
Cc1ncc2cc(-c3c(Cl)cccc3Cl)c(=O)n(C)c2n1	0	0	0			
